Article PMC9555642 (PLoS ONE, 2022)

Experiments:
HDAC8 = biological target: T1, HDAC8 (Homo sapiens, UniProt Q9BY41); assay: HDAC enzymatic activity (Eurofins); assay type: biochemical; details: Class I; ACY-1083 mean of two separate measurements, Ricolinostat and Tubastatin A one measurement
T1 construct: purchased Eurofins Pharma Discovery Services 2247
T1 sequence (Q9BY41 1-377): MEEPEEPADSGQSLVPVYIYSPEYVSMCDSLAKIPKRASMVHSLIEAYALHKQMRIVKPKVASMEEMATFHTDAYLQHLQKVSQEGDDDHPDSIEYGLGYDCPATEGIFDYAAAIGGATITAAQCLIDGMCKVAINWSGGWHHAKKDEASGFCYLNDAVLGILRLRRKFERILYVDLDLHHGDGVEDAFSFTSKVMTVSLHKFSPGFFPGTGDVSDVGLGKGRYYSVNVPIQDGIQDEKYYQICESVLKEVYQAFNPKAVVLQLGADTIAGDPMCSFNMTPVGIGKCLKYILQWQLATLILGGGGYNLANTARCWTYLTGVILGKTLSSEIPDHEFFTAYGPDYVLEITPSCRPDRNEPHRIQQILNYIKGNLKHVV

[1] = test system: healthy HBEC at ALI cultures; assay: Cell velocity (Particle Image Velocimetry); assay type: cell-based, human; details: TNF-challenged healthy HBEC, brought down to unchallenged levels, 0.0411
Excerpt: For cilia beating frequency (CBF) and cell velocity measurements, donor cells of primary healthy HBECs were amplified on rat tail collagen I coated flasks and seeded on 12-mm-diameter Transwell inserts.
Cell migration was quantified by performing Particle Image Velocimetry (PIVlab) on Matlab using multi-pass cross-correlation analysis with decreasing interrogation window size on image pairs to obtain the spatial velocity field as described previously.

COPD HBEC ALI cultures = assay: Western blot of membrane protein from ALI cell cultures; assay type: cell-based, human; details: 10 μM, TNF-challenged, four COPD donors, trend observed
Method: For extraction of membrane and cytosol proteins the cells were lysed according to the Mem-PER Plus Membrane Protein Kit protocol (#89842, ThermoFisher Scientific). The supernatants were kept frozen in −80°C until total protein quantification. Quantification of total protein in the lysates was done using Pierce BCA Protein Assay Kit (#23227, Thermo Scientific) following the manufacturer´s instructions. Lysates containing 8 μg total protein were mixed with NuPAGE LDS Sample buffer 4x (NP007, Invitrogen), NuPAGE Sample Reducing Agent 10x (NP004, Invitrogen) and deionized water and then heated for ten minutes at 70°C. The samples were loaded onto NuPAGE 4–12% Bis-Tris Gels (NP0335, Invitrogen) and run at 120V for 100 minutes in NuPAGE MOPS SDS Running buffer (NP0001, Invitrogen). The proteins were transferred to nitrocellulose membranes (LC2001, Invitrogen) at 35 mA overnight using NuPAGE Transfer buffer (NP0006, Invitrogen) supplemented with 20% methanol. The membranes were stained with Revert Total Protein Stain (926–11011, LI-COR Biosciences) for five minutes, washed and then imaged in the 700 nm channel using Odyssey CLX imaging system (LI-COR Biosciences). To correct for variation in loading the total signal intensity of all proteins in each lane were used for normalization. An inter-membrane control sample was loaded to all gels to assure there were no differences due to methodology between the blots. The stain was removed with Revert Destaining Solution (926–11013, LI-COR Biosciences) and the membranes were blocked in Intercept (TBS) Blocking Buffer (927–60001, LI-COR Biosciences) for one hour on a shaker. […] After a final wash, three times for ten minutes in TBS-T, the fluorescent signals were detected using the Odyssey CLX imaging system and the signals were analysed using Image Studio software (v4.0, LI-COR Biosciences).

HDAC6 = biological target: T2, HDAC6 (Homo sapiens, UniProt Q9UBN7); assay: HDAC enzymatic activity (Eurofins); assay type: biochemical; details: Class IIB; ACY-1083 mean of two separate measurements, Ricolinostat and Tubastatin A one measurement
T2 sequence (Q9UBN7 1-1215): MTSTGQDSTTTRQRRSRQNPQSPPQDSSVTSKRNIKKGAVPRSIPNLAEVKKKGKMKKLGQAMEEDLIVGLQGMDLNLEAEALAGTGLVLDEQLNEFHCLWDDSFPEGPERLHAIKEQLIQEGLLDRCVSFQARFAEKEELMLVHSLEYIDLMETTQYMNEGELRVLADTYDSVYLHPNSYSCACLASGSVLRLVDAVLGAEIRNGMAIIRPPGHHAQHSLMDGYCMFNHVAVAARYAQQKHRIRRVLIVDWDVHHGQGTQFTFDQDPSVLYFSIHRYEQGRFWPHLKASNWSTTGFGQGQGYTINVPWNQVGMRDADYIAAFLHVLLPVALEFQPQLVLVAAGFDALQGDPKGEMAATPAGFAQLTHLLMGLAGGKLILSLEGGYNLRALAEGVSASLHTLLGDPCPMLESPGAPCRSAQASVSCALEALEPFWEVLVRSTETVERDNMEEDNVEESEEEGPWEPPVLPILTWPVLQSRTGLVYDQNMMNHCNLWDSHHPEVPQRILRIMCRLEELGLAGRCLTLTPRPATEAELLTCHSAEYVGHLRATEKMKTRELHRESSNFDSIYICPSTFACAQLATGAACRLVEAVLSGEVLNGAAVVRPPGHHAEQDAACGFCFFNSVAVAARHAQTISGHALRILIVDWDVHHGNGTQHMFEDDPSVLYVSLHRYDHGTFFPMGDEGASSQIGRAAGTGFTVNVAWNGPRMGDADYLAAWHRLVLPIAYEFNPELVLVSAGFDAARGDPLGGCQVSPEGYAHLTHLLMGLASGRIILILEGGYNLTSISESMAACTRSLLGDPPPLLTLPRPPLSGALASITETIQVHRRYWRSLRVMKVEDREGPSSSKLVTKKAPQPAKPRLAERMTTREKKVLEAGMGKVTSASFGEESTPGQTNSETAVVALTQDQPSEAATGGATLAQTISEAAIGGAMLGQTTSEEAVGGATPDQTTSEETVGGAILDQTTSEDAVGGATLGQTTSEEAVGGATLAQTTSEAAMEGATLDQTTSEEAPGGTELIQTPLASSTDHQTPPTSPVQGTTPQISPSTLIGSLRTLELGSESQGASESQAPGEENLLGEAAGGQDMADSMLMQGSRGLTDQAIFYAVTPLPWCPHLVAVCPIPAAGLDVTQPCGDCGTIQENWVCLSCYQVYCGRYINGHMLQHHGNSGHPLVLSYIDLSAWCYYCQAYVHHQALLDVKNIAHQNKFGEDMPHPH

- IC50 (HDAC8): 15.8 µM
- IC50 (HDAC6): < 0.01 µM
Substance: ACY-1083
- cellular velocity [1]: counteract this increase
- E-cadherin level in membrane fraction (COPD HBEC ALI cultures): not significantly higher
- Occludin level in membrane fraction (COPD HBEC ALI cultures): not significantly higher
- β-catenin level in membrane fraction (COPD HBEC ALI cultures): not significantly higher
